Results on five compounds are retold here after patent US20230414571A1, “APPLICATION OF SMALL-MOLECULE COMPOUND IN PREPARATION OF ANTITUMOR DRUG” (SOOCHOW UNIVERSITY, priority 2021, published 2023).

The structures appear in SMILES notation. “Also recorded” adds a separate entry of the source.

One data set has as its target T1, hexokinase 2 (HK2) (Homo sapiens, UniProt P52789).
T1 sequence (P52789 1-917): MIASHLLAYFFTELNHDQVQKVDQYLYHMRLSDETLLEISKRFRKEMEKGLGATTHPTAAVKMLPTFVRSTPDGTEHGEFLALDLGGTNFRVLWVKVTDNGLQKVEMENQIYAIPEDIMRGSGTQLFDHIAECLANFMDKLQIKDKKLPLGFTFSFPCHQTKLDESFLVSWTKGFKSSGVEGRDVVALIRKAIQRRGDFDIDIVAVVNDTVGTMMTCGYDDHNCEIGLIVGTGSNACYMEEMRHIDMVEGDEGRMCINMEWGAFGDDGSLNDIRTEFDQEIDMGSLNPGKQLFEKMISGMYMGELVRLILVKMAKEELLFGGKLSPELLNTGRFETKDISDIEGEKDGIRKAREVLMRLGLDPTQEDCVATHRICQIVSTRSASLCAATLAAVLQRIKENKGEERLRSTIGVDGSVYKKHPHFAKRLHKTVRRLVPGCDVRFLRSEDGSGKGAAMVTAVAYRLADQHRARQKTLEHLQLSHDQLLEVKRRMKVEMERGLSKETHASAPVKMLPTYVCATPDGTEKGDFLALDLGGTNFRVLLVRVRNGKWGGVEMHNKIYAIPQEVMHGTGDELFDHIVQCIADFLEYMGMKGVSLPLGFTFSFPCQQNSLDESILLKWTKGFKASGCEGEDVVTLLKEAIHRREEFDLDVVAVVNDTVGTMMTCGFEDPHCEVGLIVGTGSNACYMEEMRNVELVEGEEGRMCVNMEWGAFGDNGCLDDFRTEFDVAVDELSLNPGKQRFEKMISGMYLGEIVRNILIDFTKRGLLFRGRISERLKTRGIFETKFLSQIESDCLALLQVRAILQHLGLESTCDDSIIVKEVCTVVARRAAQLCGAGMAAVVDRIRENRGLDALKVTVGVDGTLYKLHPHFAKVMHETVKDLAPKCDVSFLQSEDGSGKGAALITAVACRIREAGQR
Description: HK2 activity test on GLMSD platform (graphite dots MALDI-MS). Format: biochemical. To be noted: for inhibitory effect on the HK2: inhibition curves FIGS. 3-7, colorimetric kit and GLMSD; for inhibition at 20 µM: read-out: inhibition rate of HK2 activity. The procedure: GDs were dispersed in water at a concentration of 1 mg/mL as a matrix solution to be used. A sample was prepared by using a quick-drying method: firstly, 1 μL of matrix solution was dropped onto a target plate, and after natural drying at a room temperature in a […], 1 μL of sample to be analyzed was dropped onto a surface of the dried matrix, and after the sample was naturally dried, mass spectrometry was directly performed:
An instrument in the MALDI-MS was a Bruker Ultraflex III TOF/TOF mass spectrometer, which was mainly in a reflection positive and negative ion mode. Nd of 355 nm for instrument parameter: YAG laser had laser energy of 30% corresponding to 57 μJ per pulse (laser pulse duration: 3 ns), a laser spot size was about 50-100 μm, each sample was repeatedly tested four times, and 3000 laser spots were accumulated in each mass spectrum. All samples were measured under the same instrumental conditions.
an inhibition rate=(1−B/A)×100%, where • A was: a glucose concentration in a pre-reaction solution without the inhibitor-a glucose concentration in a post-reaction solution without the inhibitor, • B was: a glucose concentration in a pre-reaction solution with the inhibitor-a glucose concentration in a post-reaction solution with the inhibitor, and • a glucose concentration in the reaction solution=(mass spectrum signal strength of [glucose+Na]+/mass spectrum signal strength of [glucose-1-^13C+Na]+)×known concentration of glucose-1-^13C.

The test system of data set [1] is cranial nerve glioma cell U87. The data set is described as follows: Antiproliferative activity against cranial nerve glioma cell U87. Type of data set: cell-based. Conditions: U87 cells, FIG. 14. The text has this:
FIG. 14 is an antiproliferative activity test diagram of compound 8, compound 11, compound 13, and compound 21 against a cranial nerve glioma cell U87.

Data set [2] can be described thus: Plasma pharmacokinetics in mice determined by GLMSD. Format: in vivo, mouse. Conditions: ip, TMZ injected into abdominal cavity of mouse, plasma, average of 8 mice. The procedure:
It can be seen from FIG. 8-1 that the GLMSD platform can specifically acquire the pharmacokinetic data of small-molecule compound 27. Competitive advantages of GLMSD in pharmacokinetic research: (1) a complete drug blood concentration curve of each individual may be tracked; and (2) the total number of mice used in the test is reduced. Since the blood sample consumption of the GLMSD method is low (10 μL of blood per time point), one mouse can be used for completing the entire pharmacokinetic curve (blood sampling at 11 time points within 24 hours, and the minimum interval being 0.25 hour) of a drug.
Based on the advantage that the complete PK curve can be tested by means of the GLMSD, we observe that 3 (#2, #3 and #4) in 8 mice have the characteristic re-absorption peak of this small-molecule inhibitor at the time point of 8 h, and such a characteristic re-absorption peak hardly exists in other 5 mice. This significant phenomenon is related to drug uptake differences between individuals, prompting that compound 27 may re-enter blood circulation by means of a secondary absorption pathway. In the mode of continuous multiple administration (c in FIG. 8-2), pharmacokinetic data of compound 27 (40 mg/kg) was collected from each mouse every day (1, 3, 6, and 8 hours after last administration) for 5 days. For a single dose (a in FIG. 8-2) or a continuous multi-dose (d in FIG. 8-2) administration manner, a limitation of a conventional LC-MS technology lies in obtaining a single data point of pharmacokinetics of a drug by sacrificing one mouse, whereas GLMSD can break through this limitation by providing a complete pharmacokinetic curve based on a single mouse.

The subject of the next data set is U87MG tumor. Description: U87MG tumor growth and survival in mice after various treatments. Format: in vivo, nude mouse. To be noted: for median survival time: mice with U87MG tumor, n=6 per group. The text has this:
In all different experimental groups (a and b in FIG. 10), the overall survival (OS) of mice treated with TMZ and compound 27 is the best. […] However, mouse death caused by glioma is reduced only 20 days […] treatment. After this period of time, the survival rates of the in-situ U87 heterogeneous tumor of the two single drug groups decreases rapidly due to malignant glioma.

Where [3] appears, read: small-molecule concentration of the inhibitor 20 μM, GLMSD.

For orientation: inhibition means the percentage by which the read-out fell short of the control. Take `COc1ccccc1OCC(=O)NNC(=O)CCCC(=O)NNC(=O)COc1ccccc1OC` [compound 21]: on hexokinase 2 (HK2), the “inhibitory effect on the HK2” value is listed as “good inhibitory effects”. Also, the inhibition at 20 µM at hexokinase 2 (HK2) (setting [3]) turned out to be 25%. Also, the “inhibitory effect on U87” value in data set [1] was “inhibitory effects on U87”.
With `COc1cccc(CNCCCn2ccnc2)c1OCc1ccc(F)cc1` [compound 8], the “inhibitory effect on the HK2” value against hexokinase 2 (HK2) is “good inhibitory effects”. Moreover, on hexokinase 2 (HK2) (setting [3]), the “inhibition rate of HK2 activity” value worked out at 44%. Besides, the “inhibitory effect on U87” value in data set [1] is recorded as “inhibitory effects on U87”.
What is called Cmax is the peak of the concentration-time curve. By Tmax is commonly meant the time from dosing to the highest level. With `COc1ccc(CN2CCNCC2)c(OC)c1OC` [TMZ, Trimetazidine, reference compound], in data set [2] (read-out: AUC0-24 h), the AUC(0-t) amounted to 247 µg·h/mL. Also, in data set [2] (read-out: Cmax), the highest concentration (Cmax) was determined as 33700 ng/mL. The half-life in data set [2] (read-out: T1/2 (converted)) is 103 min. Moreover, the Tmax in data set [2] (read-out: Tmax) was found to be 30 min. In the data set on U87MG tumor (in situ U87-luciferase mice, compared with PBS), the “glioma growth / survival rate, bioluminescence tracking” value is on record as “delays the growth of glioma”. This compound also displayed a median survival time with U87MG tumor of 35 days.
Regarding `Cc1c(CCC(=O)NC2CS(=O)(=O)CC2O)c(=O)oc2cc(O)ccc12` (stereo not shown) [compound 11], the “inhibitory effect on the HK2” value against hexokinase 2 (HK2) is reported as “good inhibition effect; also recorded: good inhibitory effects”. In addition, on hexokinase 2 (HK2) (setting [3]), the inhibition at 20 µM was 29%. In addition, the “inhibitory effect on U87” value in data set [1] was “inhibitory effects on U87”.
In the data set on U87MG tumor, `O=C(O)C(=O)CBr` [3-BP, 3-bromopyruvic acid, reference compound] gave a median survival time of 17 days.
